By IC50 is commonly meant the midpoint of a concentration-inhibition curve.

The results in this text go back to patent publication US20100190851A1, “Use of Entacapone in cosmetic, dermatological and pharmaceutical compositions” (priority 2007, published 2010).

Some results are limits rather than exact numbers.

Data set [1] has as its system neutrophil infiltration into the peritoneum. In words: Thioglycollate-induced peritonitis in mice. Format: in vivo. How it is done: The compound of formula (I) is investigated in a thioglycollate-induced peritonitis model in mice employing standard method (see A. E. R. Hicks et al., J. Leukoc. Biol. 2005, 77, 59-66; M. C. Montesinos et al., Arthritis Res. Ther. 2006, 8(2): R53-R59).
Groups of 10 male mice weighting 24±2 g are used. Peritonitis is induced by intraperitoneal (i.p.) injection of 1 ml 4% thioglycollate medium in 0.9% NaCl to cause neutrophil infiltration into the peritoneum. The compound of formula (I) is dissolved in DMSO, diluted with PBS (phosphate buffered saline) and adjusted to neutral pH with NaOH. The solution of the compound of formula (I) and vehicle is administered intravenously (i.v.) 15 minutes or by oral gavage (p.o.) 60 minutes before thioglycollate medium challenge. The steroid compound Dexamethasone (3 mg/kg, p.o.; known product for rheumatoid arthritis) as the positive control compound is administered by oral gavage 60 minutes before thioglycollate medium challenge.
After 4 hr of induction, neutrophil counts are determined by Automated Hematology Analyzer (provider: Sysmex, XT-2000i equipped with XT-2000iV software) in peritoneal lavage (3 ml PBS) harvested from animals sacrificed by CO2 asphyxiation.
Normal control groups are mock induced by i.p. injection of 0.9% NaCl Inhibition of 30% or more (≧30) in the neutrophil count relative to the vehicle control is considered significant and indicates possible anti-inflammatory activity.
The compound of formula (I) is administered i.v. in different doses, 25 mg/kg, 10 mg/kg, 5 mg/kg, 1 mg/kg, 0.5 mg/kg and 0.25 mg/kg. The compound of formula (I) is also administered p.o. in different doses, 500 mg/kg, 250 mg/kg, 100 mg/kg, 50 mg/kg, 25 mg/kg, 10 mg/kg, 5 mg/kg and 1 mg/kg.

The test system of data set [2] is human E-selectin-IgG chimera. In words: Flow chamber assay, attachment of HL-60 cells to E-selectin. The following applies: flow shear 1 dyne/cm^2; after 5 minutes continuous flow. Type of data set: cell-based. The arrangement: dose or concentration left out as unconfirmed. How it is done: (§1) Flow Chamber Assay/Cell Adhesion and Rolling under Flow Conditions
(§2) To assess the capability of compound of formula (I) to inhibit cell binding under dynamic conditions resembling the flow in a blood vessel, flow chamber assays addressing/testing binding of HL-60 cells/various cell lines to P-selectin, and E-selectin chimeric molecules are performed.
(§3) Cell attachment under flow conditions is determined using a parallel flow chamber system. […]
(§4) After washing with assay buffer (“Roswell Park Memorial Institute 1640” (RPMI 1640)+10 mM HEPES) the dish is fitted into a parallel plate laminar flow chamber (sold from Glycotech, Rockville, Md.) and mounted on an inverted phase-contrast microscope (sold from Olympus, Hamburg, Germany) equipped with a CCD camera (JVC) that is connected to a PC. […] The flow rate is then decreased resulting in a calculated flow shear of 1 dyne/cm^2. Video sequences of 10 low power fields are digitally recorded after 5 minutes continuous flow. The percentage of inhibition is calculated from the mean number of cells per field that attached to the coated dish surface in the presence versus absence of compound of formula (I) of at independent experiments. […]

Data set [3] is described as follows: Skin penetration, parallel artificial membrane permeability assay (skin-PAMPA). Type of data set: in vitro ADME. How it is done: To predict passive human skin permeability of compound of formula (I) a parallel artificial membrane permeability assay is performed that mimics the main barrier properties of human stratum corneum (skin-PAMPA).
The filter of the donor compartment of a hydrophobic PVDF 96-well microtiter filter plate (Millipore, Schwalbach, Germany) is coated with a mixture of 70% silicone and 30% isopropyl myristate dissolved in hexane. After evaporation of solvent the donor compartment is filled with buffer (pH 4) containing compound of formula (I) and assembled to the acceptor compartment filled with buffer (pH 4). The assembled plate is incubated at room temperature for 16 hours. Absorbance of compound of formula (I) in the dissembled acceptor compartment is measured with a photometer (Spectramax, Molecular Devices, Sunnyvale, Calif., USA). Permeation (% flux) of compound of formula (I) through the coated filter (artificial membrane) is calculated based on equilibrium absorbance.
(In PAMPA a lipid-coated filter parts donor from acceptor wells.)

Data set [4] deals with Jurkat T-cells (attachment to E-Selectin). In words: Modulation of T-cells: flow chamber assay with pre-treated Jurkat cells, E-selectin. Format: cell-based. The following applies: cells pre-incubated 5 minutes with compound, washed twice; flow chamber as Example 2. How it is done: (§5) Cell attachment under flow conditions is determined using a parallel flow chamber system. A 35 mm polystyrene culture dish is coated for 1 h at room temperature with coating buffer (50 mM tris-(hydroxymethyl) aminomethane buffer (Tris), 150 mM NaCl, 2 mM CaCl2; pH 7.4) containing human E- or P-selectin-IgG chimera at concentrations of […], respectively. After removal of the coating solution non specific binding sites are blocked for an additional hour with 1% BSA in coating buffer at room temperature.
as §4

The subject of data set [5] is Jurkat T-cells (attachment to P-Selectin). In words: Modulation of T-cells: flow chamber assay with pre-treated Jurkat cells, P-selectin. Format: cell-based. The following applies: cells pre-incubated 5 minutes with compound, washed twice; flow chamber as Example 2. How it is done: as §5, §4
Data set [6] deals with T1, human L-Selectin-IgG-chimera (Homo sapiens, UniProt P14151).
T1 construct: fused on or other part: human IgG Fc part, fused on as a capture and dimerising handle (captured by goat anti human Fc antibody)
T1 sequence (P14151 39-318 limits assumed): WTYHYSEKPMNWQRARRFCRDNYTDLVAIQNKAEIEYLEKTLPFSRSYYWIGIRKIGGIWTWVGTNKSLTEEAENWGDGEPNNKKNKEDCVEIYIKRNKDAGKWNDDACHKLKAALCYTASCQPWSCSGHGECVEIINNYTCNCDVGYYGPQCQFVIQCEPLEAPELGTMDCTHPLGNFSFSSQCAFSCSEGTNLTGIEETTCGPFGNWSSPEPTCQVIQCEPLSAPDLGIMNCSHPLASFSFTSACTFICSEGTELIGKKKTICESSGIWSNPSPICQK
Kind of data set: Sialyl Lewis^X Tyrosine Sulfate Assay (sLe^X TSA), L-selectin. The following applies: binding of L-selectin chimera to sLe^X-tyrosine sulfate polyacrylamide. How it is done:
Sialyl Lewis^X Tyrosine Sulfate Assay (sLe^X TSA):
Compound of formula (I) is assayed on a molecular level for the ability to inhibit the binding of P- and L-selectin chimeric molecules to sLe^X and tyrosinesulfate residues linked to a polymeric matrix as a PSGL-1 substitute. IC50-values are determined.
Microtiter plates are coated overnight in carbonate buffer pH9.6 with goat anti human Fc mAB (10 μg/ml). After washing in assay buffer (25 mM 4-(2-hydroxyethyl)-1-piperazineethanesulfonic acid (HEPES), 150 mM NaCl, 1 mM CaCl2 pH7.4) and blocking (3% bovine serum albumin (BSA) in assay buffer) plates are incubated for 2 h at 37° C. with human P-Selectin-IgG-chimera (0.61 nM respectively 150 ng/mL) or human L-Selectin-IgG-chimera (0.61 nM respectively 89 ng/mL). 5 μl of sLe^X-tyrosine sulfate polyacrylamide (1 mg/ml) carrying 15% sLe^X, 10% Tyrosine-sulfate and 5% biotin is complexed with 20 μl Streptavidin-Peroxidase solution (1 mg/ml) and 25 μl assay buffer without CaCl2. […]
After incubation for 2 h at 37° C., wells are washed for six times with in assay buffer incl. […] Bound sLe^X-Tyrosine sulfate ligand complex is determined by measuring optical density at 450 nm vs. 620 nm in a Fusion alpha-FP reader (sold from Packard Bioscience, Dreieich, Germany). […]

The target in data set [7] is T2, human P-Selectin-IgG-chimera (Homo sapiens, UniProt P16109).
T2 construct: fused on or other part: human IgG Fc part, fused on as a capture and dimerising handle (captured by goat anti human Fc antibody)
T2 sequence (P16109 42-195 limits assumed): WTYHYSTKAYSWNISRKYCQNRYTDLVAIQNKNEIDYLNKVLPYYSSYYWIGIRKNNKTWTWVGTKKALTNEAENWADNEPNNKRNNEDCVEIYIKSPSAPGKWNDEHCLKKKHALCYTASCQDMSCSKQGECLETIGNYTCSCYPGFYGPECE
Kind of data set: Sialyl Lewis^X Tyrosine Sulfate Assay (sLe^X TSA), P-selectin. The following applies: binding of P-selectin chimera to sLe^X-tyrosine sulfate polyacrylamide. How it is done:
IC50-values are determined.
Microtiter plates are coated overnight in carbonate buffer pH9.6 with goat anti human Fc mAB (10 μg/ml).
After incubation for 2 h at 37° C., wells are washed for six times with in assay buffer incl. 0.005% Polyoxyethylenesorbitan monolaurate (TWEEN 20), developed for 10-15 min with 20 μl 3,3′,5,5′-tetramethylbenzidine (TMB)/H202 substrate solution and stopped with 20 μl 1 M H2SO4.

Data set [8] relates to human P-selectin-IgG chimera. In words: Flow chamber assay, attachment of HL-60 cells to P-selectin. Format: cell-based. Set-up: dose or concentration left out as unconfirmed. The following applies: flow shear 1 dyne/cm^2; after 5 minutes continuous flow. How it is done: as §1, §2, §3, §4

Take `CCN(CC)C(=O)/C(C#N)=C/c1cc(O)c(O)c([N+](=O)[O-])c1` [compound of formula (I), (2E)-2-cyano-3-(3,4-dihydroxy-5-nitrophenyl)-N,N-diethylacrylamide]: the “inhibition of neutrophil influx compared with dexamethasone (3 mg/kg, p.o.)” value in data set [1] (depending on the dose) is listed as “comparable or better”. The “inhibition of neutrophil influx (in words)” value in data set [1] (i.v. 0.25-25 mg/kg or p.o. 1-500 mg/kg, inhibition of 30% or more considered significant) is “significant inhibition of neutrophil influx”. Besides, the “inhibition of neutrophil influx (inhibition rate)” value in data set [1] (i.v. and p.o. at different doses before thioglycollate, neutrophil count 4 hr after induction) is “more than 30%”. Besides, the “% inhibition of attachment of HL-60 cells, E-Selectin” value in data set [2] stood at 30%. Moreover, the “Permeation (% flux)” value in data set [3] (70% silicone / 30% isopropyl myristate membrane, pH 4, room temperature, 16 hours) is on record as greater than 60%. Moreover, the “skin penetration (in words)” value in data set [3] (skin-penetration assay, Example 4) is “high penetration”. In addition, in data set [4], the “% inhibition of attachment of Jurkat cells (pre-treated), E-Selectin” value stood at 30%. Further, the “% inhibition of attachment of Jurkat cells (pre-treated), P-Selectin” value in data set [5] was 39%. Besides, the figures for the concentration for half-maximal inhibition (IC50) in data set [6] and in data set [7] were 1250 µM and 189 µM, respectively. For the same molecule, in data set [8], the “% inhibition of attachment of HL-60 cells, P-Selectin” value stood at 36%.

Consider sialyl Lewis X [sLe^X], for which the IC50 in data set [6] was greater than 3600 µM.
